Test results published in patent US20140072604A1, “Block Copolymer For Intraperitoneal Administration Containing Anti-Cancer Agent, Micelle Preparation Thereof, And Cancer Therapeutic Agent Comprising The Micelle Preparation As Active Ingredient” (priority 2009, published 2014).
Counter-ions that a name gives are not always drawn.

Legend:
Assay type in all cases: in vivo, BALB/c nude mouse
[1] = test system: human ovarian cancer cell line ES-2; assay: Life-prolonging effect in nude mouse model for peritoneal disseminated metastasis (ES-2), intraperitoneal administration; conditions: once three days after tumor transplantation, observed until 80 days
Procedure: Therapeutic effects on peritoneal disseminated metastasis were tested by using a mouse model for peritoneal disseminated metastasis. Specifically, the mouse model for peritoneal disseminated metastasis was prepared by intraperitoneal injection of human ovarian cancer cell line ES-2 (1.0×10^6 cells) to an 8-week old BALB/c nude mouse.
In order to estimate advantageous life-prolonging effects of the present micelle preparation having encapsulated paclitaxel, the model mice were divided into three groups, i.e., 8 mice per group. […] In addition, the drug dosage was determined by converting a clinical dosage for intravenous route (paclitaxel 210 mg/m^2 and paclitaxel micelle preparation: 150 mg/m^2) to those for a mouse using an AUC comparison. […]
1 ml of saline (Control group); 1 ml of saline containing 66.7 mg/kg of irinotecan hydrochloride (66.7 mg/kg CPT-11 administered group); and 1 ml of 5% glucose solution containing the micelle preparation containing 30 mg/kg of SN-38 (30 mg/kg SN-38 micelle administered group) were intraperitoneally administered to the mouse of each group, respectively. […] In addition, the drug dosage was determined as the one-third of the maximum amount allowed for intravenous route administration for a mouse. […]

[2] = test system: human ovarian cancer cell line SHIN-3; assay: Life-prolonging effect in nude mouse model for peritoneal disseminated metastasis (SHIN-3), intraperitoneal administration
Procedure: In order to estimate an effect of intraperitoneal administration of the micelle preparation having encapsulated paclitaxel, a mouse model for peritoneal disseminated metastasis was prepared by intraperitoneal injection of human ovarian cancer cell line SHIN-3 (1.0×10^7 cells) to an 8-week old BALB/c nude mouse. Three groups were created as following: 1 ml of saline (Control group, 18 mice); 1 ml of saline containing […] of paclitaxel (100 mg/kg PTX administered group, 8 mice); and 1 ml of 5% glucose solution containing the micelle preparation containing 50 mg/ml of encapsulated paclitaxel (50 mg/kg PTX micelle administered group, 8 mice) were intraperitoneally administered to the mouse of each group, respectively. The amounts of the ingredients were of by 20 g mouse body weight. The administrations were carried out once after one week of the tumor transplantations. The mice were observed until 120 days after the cell transplantation. The survival rates were recorded and the survival curves was plotted in FIG. 3.

[3] = test system: human stomach cancer cell line MKN45-P; assay: Life-prolonging effect in nude mouse model for peritoneal disseminated metastasis (MKN45-P), intraperitoneal administration; conditions: 50 mg/kg, once three days after tumor transplantation, observed until 60 days
Procedure: In order to estimate an effect of intraperitoneal administration of a micelle preparation having encapsulated paclitaxel, a mouse model for peritoneal disseminated metastasis was prepared by intraperitoneal injection of human stomach cancer cell line MKN45-P (1.0×10^6 cells) to an 8-week old BALB/c nude mouse. Three groups were created as following: 1 ml of saline (Control group, 8 mice); 1 ml of saline containing 50 mg/ml of paclitaxel (50 mg/kg PTX administered group, 8 mice); and 1 ml of 5% glucose solution containing the micelle preparation containing 25 mg/ml of encapsulated paclitaxel (25 mg/kg PTX micelle administered group, 8 mice) were intraperitoneally administered to the mouse of each group, respectively. The amounts of the ingredients were of by 25 g mouse body weight. The administrations were carried out once after three days of the tumor transplantation. The mice were observed until 60 days after the cell transplantation. The survival rates was recorded and the survival curves was plotted in FIG. 4.

CCc1c2c(nc3ccc(OC(=O)N4CCC(N5CCCCC5)CC4)cc13)-c1cc3c(c(=O)n1C2)COC(=O)[C@]3(O)CC [CPT-11, irinotecan hydrochloride]
50% survival rate, day after transplantation ([1]; 66.7 mg/kg, Control Day 21): 56 days

CC(=O)O[C@H]1C(=O)[C@@]2(C)[C@H]([C@H](OC(=O)c3ccccc3)[C@]3(O)C[C@H](OC(=O)[C@H](O)[C@@H](NC(=O)c4ccccc4)c4ccccc4)C(C)=C1C3(C)C)[C@]1(OC(C)=O)CO[C@@H]1C[C@@H]2O [PTX, paclitaxel]
50% survival rate, day after transplantation ([1]; 70 mg/kg, Control Day 17): 44 days | toxic death ([2]; 100 mg/kg PTX administered group, 8 mice, once): two cases of toxic death | 50% survival rate, day after transplantation ([2]; 100 mg/kg, once one week after tumor transplantation, observed until 120 days): 100 days | 50% survival rate, day after transplantation [3]: 55 days
